Measurements taken from ChEMBL document CHEMBL3822434 (Bioorg Med Chem, 2016).
≈ marks a conversion by molar mass, not a printed value.

Key:
[1] = Solubility in fasted state simulated intestinal fluid irradiated ultrasonically for 10 mins followed by incubation for 24 hrs by HPLC-UV analysis; format: ADME
[2] = Solubility in 50 mM phosphate buffer at pH 6.5 irradiated ultrasonically for 10 mins followed by incubation for 24 hrs by HPLC-UV analysis; format: physicochemical
[3] = Intrinsic clearance in human liver microsomes at 1 uM after 30 mins in presence of NADPH by LC-MS/MS analysis; format: ADME; details: read-out: CLH
Liver cytosol [4] = assay: Drug metabolism in human liver cytosol at 1 uM assessed as N-(2-Methoxy-4-((3-(4-methylpiperazin-1-yl)propyl)carbamoyl)phenyl)-4-oxo-3,4-dihydrothieno[3,2-d]pyrimidine-7-carboxamide formation after 30 mins in presence of NADPH by LC-MS/MS analysis; format: ADME; details: 0.5 h
[5] = Drug metabolism in mouse liver cytosol at 1 uM assessed as N-(2-Methoxy-4-((3-(4-methylpiperazin-1-yl)propyl)carbamoyl)phenyl)-4-oxo-3,4-dihydrothieno[3,2-d]pyrimidine-7-carboxamide formation after 30 mins in presence of NADPH by LC-MS/MS analysis; format: ADME; details: 0.5 h
[6] = Intrinsic clearance in mouse liver microsomes at 1 uM after 30 mins in presence of NADPH by LC-MS/MS analysis; format: ADME; details: read-out: CLH
[7] = biological target: T1, Mitogen-activated protein kinase kinase kinase 7 (Homo sapiens, UniProt O43318); assay: Inhibition of human recombinant TAK1 fused with TAB1 using MKK6 as substrate in presence of gamma-[33P]ATP
T1 sequence (O43318 whole entry): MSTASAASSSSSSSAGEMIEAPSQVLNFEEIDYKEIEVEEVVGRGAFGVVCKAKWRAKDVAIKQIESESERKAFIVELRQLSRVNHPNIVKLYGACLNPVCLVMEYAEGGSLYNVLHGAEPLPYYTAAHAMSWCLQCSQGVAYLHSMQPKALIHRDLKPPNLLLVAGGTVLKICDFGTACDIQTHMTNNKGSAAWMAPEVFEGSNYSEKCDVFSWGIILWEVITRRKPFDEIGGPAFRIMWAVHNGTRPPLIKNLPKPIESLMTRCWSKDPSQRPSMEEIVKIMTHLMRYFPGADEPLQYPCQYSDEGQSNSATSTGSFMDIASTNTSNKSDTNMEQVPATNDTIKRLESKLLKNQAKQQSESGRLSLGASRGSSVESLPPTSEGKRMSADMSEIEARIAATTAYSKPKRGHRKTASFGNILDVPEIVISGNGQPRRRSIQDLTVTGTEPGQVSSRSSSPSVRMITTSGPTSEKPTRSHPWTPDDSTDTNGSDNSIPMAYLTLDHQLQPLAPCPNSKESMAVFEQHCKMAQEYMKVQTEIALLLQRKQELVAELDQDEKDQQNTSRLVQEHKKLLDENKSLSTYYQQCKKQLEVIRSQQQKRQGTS

Liver cytosol [8] = assay: Drug level in human liver cytosol treated with N-(2-Methoxy-4-((3-(4-methylpiperazin-1-yl)propyl)carbamoyl)phenyl)thieno[3,2-d]pyrimidine-7-carboxamide after 30 mins in presence of NADPH by LC-MS/MS analysis; format: ADME, tissue-based; details: 0.5 h
[9] = Drug level in mouse liver cytosol treated with N-(2-Methoxy-4-((3-(4-methylpiperazin-1-yl)propyl)carbamoyl)phenyl)thieno[3,2-d]pyrimidine-7-carboxamide after 30 mins in presence of NADPH by LC-MS/MS analysis; format: ADME, tissue-based; details: 0.5 h
[10] = biological target: T1, Mitogen-activated protein kinase kinase kinase 7; assay: Inhibition of recombinant TAK1 (unknown origin)
[11] = Apparent permeability in human Caco2 cells; format: ADME, cell-based; details: Caco-2
[12] = biological target: T1, Mitogen-activated protein kinase kinase kinase 7; assay: Inhibition of TAK1 (unknown origin)
[13] = biological target: T1, Mitogen-activated protein kinase kinase kinase 7; assay: Inhibition of recombinant FLAG-tagged TAK1 kinase domain (unknown origin) expressed in baculovirus expression system coexpressing TAB using biotin-labeled MKK6kd substrate incubated for 1 hr by AlphaScreen assay

SMILES	solubility at 24 h [1] [µg/mL]	solubility at 24 h [2] [µg/mL]	microsomal CLint at 1 µM [3] [µL/min/mg]	other results
COc1cc2ncccc2cc1NC(=O)c1csc2cncnc12	< 3	< 3		
COc1cc(C(=O)NCCCN2CCN(C)CC2)ccc1NC(=O)c1csc2cncnc12	420 (≈ 896 µM)	377 (≈ 805 µM)	21	Drug metabolism (Liver cytosol [4]): metabolite_detected; Drug metabolism [5]: metabolite_detected; microsomal CLint at 1 µM [6]: 80 µL/min/mg
COc1cc(C(=O)N2CCN(C)CC2)ccc1NC(=O)c1csc2cncnc12	312 (≈ 758 µM)	293 (≈ 712 µM)	26	
COc1cc(N2CCN(C)CC2)ccc1NC(=O)c1csc2cncnc12	351 (≈ 915 µM)	353 (≈ 921 µM)	11	
C[C@H]1OC2C3=C(C(=O)[C@@H]4O[C@@H]4[C@H]3O)C1[C@@H]1[C@@H](C)OC=C3[C@H](O)[C@H]4O[C@H]4C(=O)[C@@]321 (stereo partly specified)				IC50 [7]: 20000 nM
COc1cc(C(=O)NCCCN2CCN(C)CC2)ccc1NC(=O)c1csc2c(=O)[nH]cnc12				Drug metabolism (Liver cytosol [8]): metabolite_detected; Drug metabolism [9]: metabolite_detected
Cc1cc(NC(=O)Nc2cc(C(C)(C)C)nn2-c2cccc(C#N)c2)ccc1Oc1ccncc1				IC50 [10]: 156 nM
CC(C)Oc1c(NC(=O)c2csc3c(=O)[nH]cnc23)cccc1C(=O)N1CCN(C)CC1				Papp [11]: < 1 ×10⁻⁶ cm/s
COCCN1CCN(Cc2ccc(-c3cc(NC(N)=O)c(C(N)=O)s3)cc2)CC1				IC50 [12]: 50 nM
CCc1cc(Nc2ncc(F)c(-c3cnc4cccnn34)n2)cc(OCCN2CCC(O)CC2)c1				IC50 [13]: 8 nM
